Test results from PMC6698751 (2019).

Experiments:
[1] = tested on: C1Z glutamine-II riboswitch (RNA, riboswitch, zebularine at 1 (C1Z)) CGUUCACCCUUCGGGGCGCAUGAAAUGGGAGUAGGGAACGGGAUUCUCAU; assay: isothermal titration calorimetry; details: 100 mM K+, 10 mM Mg2+; 40 mM HEPES-K pH 7.0, 298 K; no measurable heat; 2-4 mM L-glutamine in syringe
[2] = tested on: glutamine-II riboswitch (unmodified; RNA used for calorimetry) (RNA, riboswitch) CGUUCACCCUUCGGGGCGCAUGAAAUGGGAGUAGGGAACGGGAUUCUCAU; assay: isothermal titration calorimetry; details: 100 mM K+, 10 mM Mg2+; 40 mM HEPES-K pH 7.0 (7.2 in Figure 4 legend), 298 K; mean of three titrations
[3] = tested on: C39Z glutamine-II riboswitch (RNA, riboswitch, zebularine at 39 (C39Z)) CGUUCACCCUUCGGGGCGCAUGAAAUGGGAGUAGGGAACGGGAUUCUCAU; assay: isothermal titration calorimetry; details: 100 mM K+, 10 mM Mg2+; 40 mM HEPES-K pH 7.0, 298 K; 2-4 mM L-glutamine in syringe
[4] = tested on: two-piece glutamine-II riboswitch (RNA, riboswitch) CGUUCACCCUUCGGGGCGCA/UGAAAUGGGAGUAGGGAACGGGAUUCUCAU; assay: isothermal titration calorimetry; details: 100 mM K+, 10 mM Mg2+; equimolar mixture of two strands, 40 mM HEPES-K pH 7.0, 298 K
[5] = tested on: glutamine-II riboswitch (RNA used for crystallization) (RNA, riboswitch, 5-bromocytidine at 8 and 9) CGUUCACCCUUCGGGGCGCAUGAAAUGGGAGUAGGGAACGGGAUUCUCAU; assay: X-ray crystallography, 2.3 Å; details: Mg2+ in PDB record; strand-exchanged dimer; metal ion directly bound to glutamine carboxylate
[6] = tested on: G18 O2'H glutamine-II riboswitch (RNA, riboswitch, 2'-deoxy at 18 (2'-hydroxyl of G18 removed)) CGUUCACCCUUCGGGGCGCAUGAAAUGGGAGUAGGGAACGGGAUUCUCAU; assay: isothermal titration calorimetry; details: 100 mM K+, 10 mM Mg2+; 40 mM HEPES-K pH 7.0, 298 K; 2-4 mM L-glutamine in syringe

- binding [1]: no
- Kd [2]: 190 ± 90 µM
- binding [3]: no
- binding [4]: yes
- binding [5]: yes
- binding [6]: no
Compound: NC(=O)CC[C@H](N)C(=O)O
